Results: patent US20180243298A1, “TRPV3 MODULATORS” (AbbVie Inc., priority 2015, published 2018)

These compounds were tested against T1, human TRPV3 (Homo sapiens, UniProt Q8NET8) (assay: Calcium flux assay (FLIPR TETRA), recombinant HEK293 cells expressing TRPV3, 2-APB response). Conditions: 2-APB at its EC80.
T1 construct: expressed in transfected cells; host or cells: HEK293
T1 sequence (Q8NET8 1-790): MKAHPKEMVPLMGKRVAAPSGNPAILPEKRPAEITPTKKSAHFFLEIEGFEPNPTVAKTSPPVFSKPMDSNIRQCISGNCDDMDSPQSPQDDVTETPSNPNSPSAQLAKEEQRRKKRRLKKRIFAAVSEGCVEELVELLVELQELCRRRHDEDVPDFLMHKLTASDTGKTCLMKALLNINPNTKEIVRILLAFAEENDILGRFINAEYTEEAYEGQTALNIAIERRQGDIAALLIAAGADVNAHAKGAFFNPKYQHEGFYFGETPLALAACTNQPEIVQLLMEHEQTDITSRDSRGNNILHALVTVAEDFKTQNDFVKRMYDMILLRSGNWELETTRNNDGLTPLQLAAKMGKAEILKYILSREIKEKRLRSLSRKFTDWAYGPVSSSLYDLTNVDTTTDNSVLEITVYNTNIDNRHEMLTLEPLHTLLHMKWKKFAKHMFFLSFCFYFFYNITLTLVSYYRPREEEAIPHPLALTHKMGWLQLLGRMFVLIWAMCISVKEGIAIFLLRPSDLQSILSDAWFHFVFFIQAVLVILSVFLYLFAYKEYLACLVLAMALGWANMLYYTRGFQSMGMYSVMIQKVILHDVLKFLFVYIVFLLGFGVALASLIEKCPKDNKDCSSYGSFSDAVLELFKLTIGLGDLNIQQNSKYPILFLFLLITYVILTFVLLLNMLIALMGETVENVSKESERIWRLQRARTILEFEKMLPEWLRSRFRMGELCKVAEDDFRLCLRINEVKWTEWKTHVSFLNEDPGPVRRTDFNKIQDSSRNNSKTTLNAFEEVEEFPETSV
Format: cell-based
Summary of the method: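 Response is the peak fluorescence increase over baseline, as a percentage of the compound-free response to 2-APB at EC80. Calcium flux recorded on FLIPR TETRA in stable human or mouse TRPV3 HEK293 cells after 90–120 min Calcium-4 dye loading.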

Row | Structure (SMILES) | IC50
1 | COc1ncnc(OC)c1C(=O)Nc1nc(C2CCC(F)(F)CC2)cs1 [Example 99, N-[4-(4,4-difluorocyclohexyl)-1,3-thiazol-2-yl]-4,6-dimethoxypyrimidine-5-carboxamide] | 100 to 500 nM
2 | COc1ncnc(OC)c1C(=O)Nc1nc(C2CCC2)c(F)s1 [Example 101, N-(4-cyclobutyl-5-fluoro-1,3-thiazol-2-yl)-4,6-dimethoxypyrimidine-5-carboxamide] | 50 to 100 nM
3 | COc1ncnc(OC)c1C(=O)Nc1nc(/C=C/C(C)(C)C)cs1 [Example 104, N-{4-[(1E)-3,3-dimethylbut-1-en-1-yl]-1,3-thiazol-2-yl}-4,6-dimethoxypyrimidine-5-carboxamide] | > 1000 nM
4 | COc1ncnc(OC)c1C(=O)Nc1nc(CCC2CC2)cs1 [Example 105, N-[4-(2-cyclopropylethyl)-1,3-thiazol-2-yl]-4,6-dimethoxypyrimidine-5-carboxamide] | 50 to 100 nM
5 | COc1ncnc(OC)c1C(=O)Nc1nc(CCc2ccc(F)cc2)cs1 [Example 107, N-{4-[2-(4-fluorophenyl)ethyl]-1,3-thiazol-2-yl}-4,6-dimethoxypyrimidine-5-carboxamide] | 500 to 1000 nM
6 | COc1cc(F)ccc1-c1csc(NC(=O)c2c(OC)ncnc2OC)n1 [Example 108, N-[4-(4-fluoro-2-methoxyphenyl)-1,3-thiazol-2-yl]-4,6-dimethoxypyrimidine-5-carboxamide] | 100 to 500 nM
7 | COc1ncnc(OC)c1C(=O)Nc1nc(C(F)(F)F)c([S+]([O-])Cc2ccccc2)s1 (centres unmarked) [Example 112, N-(5-(benzylsulfinyl)-4-(trifluoromethyl)thiazol-2-yl)-4,6-dimethoxypyrimidine-5-carboxamide] | > 1000 nM
8 | COc1ncnc(OC)c1C(=O)Nc1nc(-c2ccc(C(F)(F)F)cn2)c(S(C)(=O)=O)s1 [Example 114, 4,6-dimethoxy-N-[5-methylsulfonyl-4-[5-(trifluoromethyl)-2-pyridyl]-1,3-thiazol-2-yl]pyrimidine-5-carboxamide] | 100 to 500 nM
9 | COc1ncnc(OC)c1C(=O)Nc1nc(C(F)(F)F)c(Sc2ccccc2)s1 [Example 115, 4,6-dimethoxy-N-[5-phenylsulfanyl-4-(trifluoromethyl)-1,3-thiazol-2-yl]pyrimidine-5-carboxamide] | 50 to 100 nM
10 | COc1ncnc(OC)c1C(=O)Nc1nc(C(F)(F)F)c(C(C)(C)O)s1 [Example 116, N-[5-(2-hydroxypropan-2-yl)-4-(trifluoromethyl)-1,3-thiazol-2-yl]-4,6-dimethoxypyrimidine-5-carboxamide] | > 1000 nM
11 | COc1ncnc(OC)c1C(=O)Nc1nc(C(F)(F)F)c(C2(O)CCOCC2)s1 [Example 117, N-[5-(4-hydroxytetrahydro-2H-pyran-4-yl)-4-(trifluoromethyl)-1,3-thiazol-2-yl]-4,6-dimethoxypyrimidine-5-carboxamide] | > 1000 nM
12 | COc1ncnc(OC)c1C(=O)Nc1nc(C(F)(F)F)c(C2(F)CCOCC2)s1 [Example 118, N-[5-(4-fluorotetrahydro-2H-pyran-4-yl)-4-(trifluoromethyl)-1,3-thiazol-2-yl]-4,6-dimethoxypyrimidine-5-carboxamide] | 500 to 1000 nM
13 | COc1ncnc(OC)c1C(=O)Nc1nc(C(F)(F)F)c(C(O)c2ccccc2)s1 (centres unmarked) [Example 120, N-{5-[hydroxy(phenyl)methyl]-4-(trifluoromethyl)-1,3-thiazol-2-yl}-4,6-dimethoxypyrimidine-5-carboxamide] | 100 to 500 nM
14 | COc1ncnc(OC)c1C(=O)Nc1nc(C(F)(F)F)c(C(C)(O)c2ccccc2)s1 (centres unmarked) [Example 122, N-[5-(1-hydroxy-1-phenylethyl)-4-(trifluoromethyl)-1,3-thiazol-2-yl]-4,6-dimethoxypyrimidine-5-carboxamide] | < 50 nM
15 | CO/N=C(\c1ccccc1)c1sc(NC(=O)c2c(OC)ncnc2OC)nc1C(F)(F)F [Example 125, 4,6-dimethoxy-N-{5-[(E)-(methoxyimino)(phenyl)methyl]-4-(trifluoromethyl)-1,3-thiazol-2-yl}pyrimidine-5-carboxamide] | < 50 nM
16 | COc1ncnc(OC)c1C(=O)Nc1nc(C(F)(F)F)c(/C(=N/O)c2ccccc2)s1 [Example 126, N-{5-[(E)-(hydroxyimino)(phenyl)methyl]-4-(trifluoromethyl)-1,3-thiazol-2-yl}-4,6-dimethoxypyrimidine-5-carboxamide] | < 50 nM
17 | COc1ncnc(OC)c1C(=O)Nc1nc(C(F)(F)F)c(C(=O)c2ccccn2)s1 [Example 127, 4,6-dimethoxy-N-[5-(pyridin-2-ylcarbonyl)-4-(trifluoromethyl)-1,3-thiazol-2-yl]pyrimidine-5-carboxamide] | > 1000 nM

Results, then the compound that gave them:

Row | IC50 | Structure (SMILES)
18 | 100 to 500 nM | COc1ncnc(OC)c1C(=O)Nc1nc(C2CCCC2)cs1 [Example 98, N-(4-cyclopentyl-1,3-thiazol-2-yl)-4,6-dimethoxypyrimidine-5-carboxamide]
19 | < 50 nM | COc1ncnc(OC)c1C(=O)Nc1nc(C(C)(C)C)c(F)s1 [Example 100, N-(4-tert-butyl-5-fluoro-1,3-thiazol-2-yl)-4,6-dimethoxypyrimidine-5-carboxamide]
20 | 100 to 500 nM | COc1ncnc(OC)c1C(=O)Nc1nc(C2CCC2)c(C#N)s1 [Example 102, N-(5-cyano-4-cyclobutyl-1,3-thiazol-2-yl)-4,6-dimethoxypyrimidine-5-carboxamide]
21 | > 1000 nM | COc1ncnc(OC)c1C(=O)Nc1nc(/C=C/C2CC2)cs1 [Example 103, N-{4-[(E)-2-cyclopropylethenyl]-1,3-thiazol-2-yl}-4,6-dimethoxypyrimidine-5-carboxamide]
22 | 500 to 1000 nM | COc1ncnc(OC)c1C(=O)Nc1nc(/C=C/c2ccc(F)cc2)cs1 [Example 106, N-{4-[(E)-2-(4-fluorophenyl)ethenyl]-1,3-thiazol-2-yl}-4,6-dimethoxypyrimidine-5-carboxamide]
23 | 100 to 500 nM | COc1ncnc(OC)c1C(=O)Nc1nc(-c2ccc(C(F)(F)F)cn2)c(S(=O)(=O)c2ccc(C)cc2)s1 [Example 109, 4,6-dimethoxy-N-[5-(p-tolylsulfonyl)-4-[5-(trifluoromethyl)-2-pyridyl]-1,3-thiazol-2-yl]pyrimidine-5-carboxamide]
24 | 100 to 500 nM | COc1ncnc(OC)c1C(=O)Nc1nc(C(F)(F)F)c(S(=O)(=O)c2ccc(C)cc2)s1 [Example 110, 4,6-dimethoxy-N-[5-(p-tolylsulfonyl)-4-(trifluoromethyl)-1,3-thiazol-2-yl]pyrimidine-5-carboxamide]
25 | 500 to 1000 nM | COc1ncnc(OC)c1C(=O)Nc1nc(C(F)(F)F)c(S(=O)(=O)Cc2ccccc2)s1 [Example 111, N-[5-benzylsulfonyl-4-(trifluoromethyl)-1,3-thiazol-2-yl]-4,6-dimethoxy-pyrimidine-5-carboxamide]
26 | 500 to 1000 nM | COc1ncnc(OC)c1C(=O)Nc1nc(-c2ccc(C(F)(F)F)cn2)c([S+](C)[O-])s1 (centres unmarked) [Example 113, 4,6-dimethoxy-N-[5-methylsulfinyl-4-[5-(trifluoromethyl)-2-pyridyl]-1,3-thiazol-2-yl]pyrimidine-5-carboxamide]
27 | > 1000 nM | COc1ncnc(OC)c1C(=O)Nc1nc(C(F)(F)F)c(C2(O)CCC2)s1 [Example 119, N-[5-(1-hydroxycyclobutyl)-4-(trifluoromethyl)-1,3-thiazol-2-yl]-4,6-dimethoxypyrimidine-5-carboxamide]
28 | 50 to 100 nM | COc1ncnc(OC)c1C(=O)Nc1nc(C(F)(F)F)c(C(=O)c2ccccc2)s1 [Example 121, N-[5-benzoyl-4-(trifluoromethyl)-1,3-thiazol-2-yl]-4,6-dimethoxypyrimidine-5-carboxamide]
29 | 100 to 500 nM | COc1ncnc(OC)c1C(=O)Nc1nc(C(F)(F)F)c(C(O)C(C)(C)C)s1 (centres unmarked) [Example 123, N-[5-(1-hydroxy-2,2-dimethylpropyl)-4-(trifluoromethyl)-1,3-thiazol-2-yl]-4,6-dimethoxypyrimidine-5-carboxamide]
30 | < 50 nM | COc1ncnc(OC)c1C(=O)Nc1nc(C(F)(F)F)c(C(=O)C(C)(C)C)s1 [Example 124, N-[5-(2,2-dimethylpropanoyl)-4-(trifluoromethyl)-1,3-thiazol-2-yl]-4,6-dimethoxypyrimidine-5-carboxamide]
31 | 100 to 500 nM | COc1ncnc(OC)c1C(=O)Nc1nc(C(F)(F)F)c(/C(=N/O)c2ccccn2)s1 [Example 128, N-{5-[(E)-(hydroxyimino)(pyridin-2-yl)methyl]-4-(trifluoromethyl)-1,3-thiazol-2-yl}-4,6-dimethoxypyrimidine-5-carboxamide]
32 | > 1000 nM | COc1ncnc(OC)c1C(=O)Nc1nc(C(F)(F)F)c(C(C)(O)c2ccccn2)s1 (centres unmarked) [Example 129, N-{5-[1-hydroxy-1-(pyridin-2-yl)ethyl]-4-(trifluoromethyl)-1,3-thiazol-2-yl}-4,6-dimethoxypyrimidine-5-carboxamide]
